Measurements: ChEMBL document CHEMBL1201862, “PubChem BioAssay data set” (2004)
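Test compounds were applied to cells in 96-well plates for 48 hours at 5 doses. At the GI50, growth is halved.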 Calls of active or inactive are those of the source. No stated cut-off is given here; in the data, active = GI50 up to about 1.1 µM and inactive = higher.

Legend:
Assay in all cases: growth of human tumour cells (NCI), 48 h
NCI-H23 = system: NCI-H23
NCI-H522 = system: NCI-H522
ACHN = system: ACHN
786-0 = system: 786-0
SK-MEL-2 = system: SK-MEL-2
RXF 393 = system: RXF 393
HOP-62 = system: HOP-62
MOLT-4 = system: MOLT-4
IGROV-1 = system: IGROV-1
NCI-H460 = system: NCI-H460
SNB-75 = system: SNB-75
SF-539 = system: SF-539
SW-620 = system: SW-620
MDA-MB-231 = system: MDA-MB-231
PC-3 = system: PC-3
SF-268 = system: SF-268
K562 = system: K562
MCF7 = system: MCF7
SK-MEL-28 = system: SK-MEL-28
HCT-15 = system: HCT-15
T47D = system: T47D
HOP-92 = system: HOP-92
UACC-62 = system: UACC-62
Hs-578T = system: Hs-578T
TK-10 = system: TK-10
COLO 205 = system: COLO 205
OVCAR-3 = system: OVCAR-3
MDA-N = system: MDA-N
A549 = system: A549
SK-MEL-5 = system: SK-MEL-5
KM12 = system: KM12
MDA-MB-435 = system: MDA-MB-435
SK-OV-3 = system: SK-OV-3
SNB-19 = system: SNB-19
HT-29 = system: HT-29
U-251 = system: U-251
HCT-116 = system: HCT-116
NCI/ADR-RES = system: NCI/ADR-RES
OVCAR-8 = system: OVCAR-8
EKVX = system: EKVX
A498 = system: A498
DU-145 = system: DU-145
SF-295 = system: SF-295
SN12C = system: SN12C
Malme-3M = system: Malme-3M
CAKI-1 = system: CAKI-1
HCC 2998 = system: HCC 2998
BT-549 = system: BT-549
M14 = system: M14
LOX IMVI = system: LOX IMVI
CCRF-CEM = system: CCRF-CEM
NCI-H226 = system: NCI-H226
OVCAR-5 = system: OVCAR-5
UO-31 = system: UO-31
OVCAR-4 = system: OVCAR-4
UACC-257 = system: UACC-257
SR = system: SR

SMILES: CC(C)=CCC/C(C)=C/CC/C(C)=C/CC/C(C)=C/CC/C(C)=C\CC/C(C)=C/CC/C(C)=C/CC/C(C)=C/Cc1cc(O)ccc1O
- GI50 (NCI-H23): 0.361 µM (active)
- GI50 (NCI-H522): 0.505 µM (active)
- GI50 (ACHN): 4.75 µM (inactive)
- GI50 (786-0): 1.45 µM (inactive)
- GI50 (SK-MEL-2): 0.682 µM (active)
- GI50 (RXF 393): 0.344 µM (active)
- GI50 (HOP-62): 6.03 µM (inactive)
- GI50 (MOLT-4): 1.93 µM (inactive)
- GI50 (IGROV-1): 0.323 µM (active)
- GI50 (NCI-H460): 2.57 µM (inactive)
- GI50 (SNB-75): 3.41 µM (inactive)
- GI50 (SF-539): 1.33 µM (inactive)
- GI50 (SW-620): 2.28 µM (inactive)
- GI50 (MDA-MB-231): 20.6 µM (inactive)
- GI50 (PC-3): 0.689 µM (active)
- GI50 (SF-268): 2.01 µM (inactive)
- GI50 (K562): 3.18 µM (inactive)
- GI50 (MCF7): 0.126 µM (active)
- GI50 (SK-MEL-28): 0.424 µM (active)
- GI50 (HCT-15): 1.69 µM
- GI50 (T47D): 1.24 µM (inactive)
- GI50 (HOP-92): 8.49 µM (inactive)
- GI50 (UACC-62): 0.157 µM (active)
- GI50 (Hs-578T): 3.33 µM (inactive)
- GI50 (TK-10): 1.41 µM (inactive)
- GI50 (COLO 205): 0.387 µM (active)
- GI50 (OVCAR-3): 0.573 µM (active)
- GI50 (MDA-N): 0.236 µM (active)
- GI50 (A549): 1.33 µM (inactive)
- GI50 (SK-MEL-5): 0.294 µM (active)
- GI50 (KM12): 0.632 µM (active)
- GI50 (MDA-MB-435): 0.39 µM (active)
- GI50 (SK-OV-3): 4.06 µM (inactive)
- GI50 (SNB-19): 10 µM (inactive)
- GI50 (HT-29): 1.11 µM (active)
- GI50 (U-251): 1.85 µM (inactive)
- GI50 (HCT-116): 0.561 µM (active)
- GI50 (NCI/ADR-RES): 0.459 µM (active)
- GI50 (OVCAR-8): 1.15 µM (inactive)
- GI50 (EKVX): 2.31 µM (inactive)
- GI50 (A498): 0.993 µM (active)
- GI50 (DU-145): 19.4 µM (inactive)
- GI50 (SF-295): 1.45 µM (inactive)
- GI50 (SN12C): 5.31 µM (inactive)
- GI50 (Malme-3M): 0.292 µM (active)
- GI50 (CAKI-1): 0.239 µM (active)
- GI50 (HCC 2998): 4.99 µM (inactive)
- GI50 (BT-549): 1.98 µM (inactive)
- GI50 (M14): 0.213 µM (active)
- GI50 (LOX IMVI): 0.966 µM (active)
- GI50 (CCRF-CEM): 0.955 µM (active)
- GI50 (NCI-H226): 2.02 µM (inactive)
- GI50 (OVCAR-5): 9.27 µM (inactive)
- GI50 (UO-31): 1.72 µM (inactive)
- GI50 (OVCAR-4): 1.32 µM (inactive)
- GI50 (UACC-257): 0.387 µM (active)
- GI50 (SR): 0.43 µM (active)
